Results taken from patent US7468375B2 (Pfizer Inc., priority 2004, dated 2008).
pEC50, pIC50: −log10 of the molar value. Read-outs that look alike come from different tables or passages of the source.

How the values were obtained:
[1] = target: T1, Full-length wild type HIV-1 integrase (SF1) (Human immunodeficiency virus type 1 group M subtype B, UniProt P04585); test: Integrase strand-transfer scintillation proximity assay; format: biochemical; conditions: 50 min at 37° C., 246 nM integrase, 50 nM host DNA
T1 construct: made in house; host or cells: E. coli BL21 (DE3)
Procedure, shortened: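 Recombinant full-length wild-type HIV-1 integrase (aa 1-288), E. coli-expressed, tested on biotinylated pre-processed U5 LTR viral ds-DNA with CA overhang bound to streptavidin SPA beads. [3H]-thymidine-labelled host ds-DNA serves as target; strand transfer read by scintillation proximity. A 3′ di-deoxy viral DNA control checks non-specific binding.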

[2] = test system: RF strain of HIV-1 in CEM-SS cells; test: HIV-1 cell protection assay (XTT dye reduction); format: cell-based; conditions: Human immunodeficiency virus 1, CEM-SS, 144 h
Procedure, shortened: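 CEM-SS cells infected with HIV-1 RF (moi 0.025–0.819) or mock-infected, 2×10^4 cells/well with half-log compound dilutions for six days. Viability by XTT/PMS reduction (4 h), absorbance 450 nm, as % of uninfected untreated cells. Therapeutic index = CC50/EC50.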

[3] = strand transfer, read-out: IC50
[4] = HIV-1 RF, CEM-SS cells, XTT dye reduction, six days, read-out: EC50

| Compound | pIC50 [1, 3] | pEC50 [2, 4] | pIC50 ([1]; IC50, strand transfer) | pEC50 [2] |
| --- | --- | --- | --- | --- |
| O=C1CN(Cc2cn(Cc3ccc(F)cc3)c3cnc(C(=O)NOc4ccccc4)cc23)CCN1 [Example 104, 1-(4-Fluorobenzyl)-3-[(3-oxopiperazin-1-yl)methyl]-N-phenoxy-1H-pyrrolo[2,3-c]pyridine-5-carboxamide] | 6.74 | 8.35 | – | – |
| O=C(NO)c1cc2c(COC[C@@H](O)CO)cn(Cc3ccc(F)cc3F)c2cn1 [Example 106] | 7.92 | 7.18 | – | – |
| O=C(NO)c1cc2c(COC[C@H](O)CO)cn(Cc3ccc(F)cc3F)c2cn1 [Example 107, 1-(2,4-Difluorobenzyl)-3-({[(2S)-2,3-dihydroxypropyl]oxy}methyl)-hydroxy-1H-pyrrolo[2,3-c]pyridine-5-carboxamide] | – | 7.49 | 8.47 | – |
| COCCOCc1cn(Cc2ccc(F)cc2)c2cnc(C(=O)N(C)O)cc12 [Example 108, 1-(4-Fluorobenzyl)-N-hydroxy-3-[(2-methoxyethoxy)methyl]-N-methyl-1H-pyrrolo[2,3-c]pyridine-5-carboxamide] | 7.67 | – | – | 6.48 |
| COCCOCc1cn(Cc2ccc(F)cc2)c2cnc(C(=O)NOC)cc12 [Example 109, 1-(4-Fluorobenzyl)-N-methoxy-3-[(2-methoxyethoxy)methyl]-1H-pyrrolo[2,3-c]pyridine-5-carboxamide] | 7.20 | 6.50 | – | – |
| CN(O)C(=O)c1cc2c(COC[C@@H]3COC(C)(C)O3)cn(Cc3ccc(F)cc3)c2cn1 [Example 110, 3-({[(4R)-2,2-Dimethyl-1,3-dioxolan-4-yl]methoxy}methyl)-1-(4-fluorobenzyl)-N-hydroxy-N-methyl-1H-pyrrolo[2,3-c]pyridine-5-carboxamide] | 7.85 | – | – | 6.47 |
| CC1(C)OC[C@H](COCc2cn(Cc3ccc(F)cc3)c3cnc(C(=O)NO)cc23)O1 [Example 111, 3-({[(4S)-2,2-dimethyl-1,3-dioxolan-4-yl]methoxy}methyl)-1-(4-fluorobenzyl)-N-hydroxy-1H-pyrrolo[2,3-c]pyridine-5-carboxamide] | 7.70 | 7.11 | – | – |
| CN(O)C(=O)c1cc2c(CN3CC[C@H]4CNC(=O)[C@H]4C3)cn(Cc3ccc(F)cc3F)c2cn1 [Example 113] | 7.40 | 6.36 | – | – |
| CN(O)C(=O)c1cc2c(CN3CCNC(=O)C3)cn(Cc3ccc(F)cc3)c2cn1 [Example 114, 1-(4-fluorobenzyl)-N-hydroxy-N-methyl-3-[(3-oxopiperazin-1-yl)methyl]-1H-pyrrolo[2,3-c] pyridine-5-carboxamide] | 6.82 | – | – | 6.45 |
| CN(O)C(=O)c1cc2c(COCCN3CCCC3=O)cn(Cc3ccc(F)cc3)c2cn1 [Example 117, 1-(4-Fluorobenzyl)-N-hydroxy-N-methyl-3-{[2-(2-oxopyrrolidin-1-yl)ethoxy]methyl}-1H-pyrrolo[2,3-c]pyridine-5-carboxamide] | 6.70 | 6.40 | – | – |
| CN(O)C(=O)c1cc2c(COC3CCOCC3)cn(Cc3ccc(F)cc3)c2cn1 [Example 118, 1-(4-Fluorobenzyl)-N-hydroxy-N-methyl-3-[(tetrahydro-2H-pyran-4-yloxy)methyl]-1H-pyrrolo[2,3-c]pyridine-5-carboxamide] | 7.24 | 6.50 | – | – |
| C[C@@H](OCc1cn(Cc2ccc(F)cc2)c2cnc(C(=O)N(C)O)cc12)c1ccccc1 [Example 119, 1-(4-Fluorobenzyl)-N-hydroxy-N-methyl-3-{[(1R)-1-phenylethoxy]methyl}-1H-pyrrolo[2,3-c]pyridine-5-carboxamide] | 7.41 | 6.30 | – | – |
| CCOCCOCc1cn(Cc2ccc(F)cc2)c2cnc(C(=O)N(C)O)cc12 [Example 120, 3-[(2-ethoxyethoxy)methyl]-1-(4-fluorobenzyl)-N-hydroxy-N-methyl-1H-pyrrolo[2,3-c]pyridine-5-carboxamide] | 7.24 | 6.51 | – | – |
| COCCOCc1cn(Cc2ccc(F)cc2F)c2cnc(C(=O)N(C)O)cc12 [Example 123, 1 (2,4-Difluorobenzyl)-N-hydroxy-3-[(2-methoxyethoxy)methyl]-N-methyl-1H-pyrrolo[2,3-c]pyridine-5-carboxamide] | 7.29 | – | – | 6.28 |
